{
  "source": "patent US10093644B2",
  "about": "“3-[(Benzo[D][1,3]dioxolan-4-yl)-oxy]-3-arylpropylamine type compounds and applications thereof” (NHWA PHARMA. CORPORATION, priority 2014, dated 2018)",
  "key": {"mice [1]": {"system": "mice", "assay": "Mice tail suspension test (acquired despair experiment)", "format": "in vivo", "conditions": "for immobilized time of mice tail suspension: i.g. (gavage); for ED50: Mus musculus, read-out: tail suspension ED50"}, "[2]": {"assay": "Therapeutic index evaluation (LD50/ED50)", "format": "in vivo", "conditions": "for therapeutic index (swimming): LD50/ED50, swimming ED50; for therapeutic index (tail suspension): LD50/ED50, tail suspension ED50; for LD50: half lethal dose"}, "[3]": {"assay": "Acid stability evaluation in diluted hydrochloric acid", "format": "physicochemical", "conditions": "0.1 mol/L hydrochloric acid", "procedure": "The compound according to the invention was incubated in diluted hydrochloric acid (0.1 mol/L) at 37° C. for 2 h to test the decomposition of the compound (shown as %) and the results were shown as follows."}, "mice [4]": {"system": "mice", "assay": "Mice forced swimming test (acquired despair experiment)", "format": "in vivo", "conditions": "for immobilized time of mice swimming: i.g. (gavage); for ED50: Mus musculus, read-out: swimming ED50"}},
  "note": "“And” between values parts separate entries of the source, which are not always exact repeats. Equal values may be shown once. Read-outs that look alike come from different tables or passages of the source.",
  "data": [
    {"smiles": "CNCCC(Oc1cccc2c1OCO2)c1cccs1", "note": "(centres unmarked) [ammuxetine, reference compound]", "values": [
      {"measurement": "tail suspension ED50", "setting": "mice [1]; half effective dose", "result": 3.89, "unit": "mg/kg"},
      {"measurement": "therapeutic index (swimming)", "setting": "[2]", "result": 68.9},
      {"measurement": "therapeutic index (tail suspension)", "setting": "[2]", "result": 45.7},
      {"measurement": "LD50", "setting": "[2]", "result": 177.8, "unit": "mg/kg"},
      {"measurement": "ratio of the compound after incubation in diluted hydrochloric acid at 37° C. for 2 h", "setting": "[3]", "result": 44, "unit": "%"},
      {"measurement": "swimming ED50", "setting": "mice [4]; half effective dose", "result": 2.58, "unit": "mg/kg"}
    ]},
    {"smiles": "CNCCC(Oc1cccc2c1OCO2)c1ccccc1.O=C(O)C(=O)O", "note": "(centres unmarked) [compound 2, 3-[(benzo[d][1,3]dioxolan-4-yl)-oxy]-N-methyl-3-phenylpropylamine oxalate]", "values": [
      {"measurement": "immobilized time of mice tail suspension", "setting": "mice [1]; 5 mg/kg, oxalate form", "result": "44.3 ± 34.5", "unit": "s"},
      {"measurement": "immobilized time of mice tail suspension", "setting": "mice [1]; 10 mg/kg, oxalate form", "result": "8.2 ± 13.7", "unit": "s"},
      {"measurement": "ED50", "setting": "mice [1]; half effective dose", "result": 7.06, "unit": "mg/kg"},
      {"measurement": "therapeutic index (swimming)", "setting": "[2]", "result": 88.8},
      {"measurement": "therapeutic index (tail suspension)", "setting": "[2]", "result": 25.2},
      {"measurement": "LD50", "setting": "[2]; in vivo, read-out: LD50", "result": 178, "unit": "mg/kg"},
      {"measurement": "ratio of the compound after incubation in diluted hydrochloric acid at 37° C. for 2 h", "setting": "[3]", "result": 99, "unit": "%"},
      {"measurement": "immobilized time of mice swimming", "setting": "mice [4]; 5 mg/kg, oxalate form", "result": "38.9 ± 34.5", "unit": "s"},
      {"measurement": "immobilized time of mice swimming", "setting": "mice [4]; 10 mg/kg, oxalate form", "result": "28.6 ± 19.3", "unit": "s"},
      {"measurement": "ED50", "setting": "mice [4]; half effective dose", "result": 2, "unit": "mg/kg"}
    ]},
    {"smiles": "CN(C)CCC(Oc1cccc2c1OCO2)c1ccc(F)cc1.O=C(O)C(=O)O", "note": "(centres unmarked) [compound 3, 3-[(benzo[d][1,3]dioxolan-4-yl)-oxy]-3-(4-fluorophenyl)-N,N-dimethylpropylamine oxalate]", "values": [
      {"measurement": "immobilized time of mice tail suspension", "setting": "mice [1]; 5 mg/kg, oxalate form", "result": "22.0 ± 28.2", "unit": "s"},
      {"measurement": "immobilized time of mice tail suspension", "setting": "mice [1]; 10 mg/kg, oxalate form", "result": "9.2 ± 13.3", "unit": "s"},
      {"measurement": "ED50", "setting": "mice [1]; half effective dose", "result": 4.32, "unit": "mg/kg"},
      {"measurement": "therapeutic index (swimming)", "setting": "[2]", "result": 155.6},
      {"measurement": "therapeutic index (tail suspension)", "setting": "[2]", "result": 82.2},
      {"measurement": "LD50", "setting": "[2]; in vivo, read-out: LD50", "result": 355, "unit": "mg/kg"},
      {"measurement": "ratio of the compound after incubation in diluted hydrochloric acid at 37° C. for 2 h", "setting": "[3]", "result": 99, "unit": "%"},
      {"measurement": "immobilized time of mice swimming", "setting": "mice [4]; 5 mg/kg, oxalate form", "result": "42.0 ± 56.1", "unit": "s"},
      {"measurement": "immobilized time of mice swimming", "setting": "mice [4]; 10 mg/kg, oxalate form", "result": "31.0 ± 54.2", "unit": "s"},
      {"measurement": "ED50", "setting": "mice [4]; half effective dose", "result": 2.28, "unit": "mg/kg"}
    ]},
    {"smiles": "CNCCC(Oc1cccc2c1OCO2)c1ccc(F)cc1.O=C(O)C(=O)O", "note": "(centres unmarked) [compound 4, 3-[(benzo[d][1,3]dioxolan-4-yl)-oxy]-3-(4-fluorophenyl)-N-methylpropylamine oxalate]", "values": [
      {"measurement": "immobilized time of mice tail suspension", "setting": "mice [1]; 5 mg/kg, oxalate form", "result": "21.4 ± 12.8", "unit": "s"},
      {"measurement": "immobilized time of mice tail suspension", "setting": "mice [1]; 10 mg/kg, oxalate form", "result": "29.6 ± 13.1", "unit": "s"},
      {"measurement": "ratio of the compound after incubation in diluted hydrochloric acid at 37° C. for 2 h", "setting": "[3]", "result": 99, "unit": "%"},
      {"measurement": "immobilized time of mice swimming", "setting": "mice [4]; 5 mg/kg, oxalate form", "result": "74.1 ± 36.8", "unit": "s"},
      {"measurement": "immobilized time of mice swimming", "setting": "mice [4]; 10 mg/kg, oxalate form", "result": "60.1 ± 42.2", "unit": "s"}
    ]},
    {"smiles": "CNCCC(Oc1cccc2c1OCO2)c1cccc(OC)c1.O=C(O)C(=O)O", "note": "(centres unmarked) [compound 12, 3-[(benzo[d][1,3]dioxolan-4-yl)-oxy]-3-(3-methoxylphenyl)-N-methylpropylamine oxalate]", "values": [
      {"measurement": "immobilized time of mice tail suspension", "setting": "mice [1]; 5 mg/kg, oxalate form", "result": "64.1 ± 24.5", "unit": "s"},
      {"measurement": "immobilized time of mice tail suspension", "setting": "mice [1]; 10 mg/kg, oxalate form", "result": "33.0 ± 15.6", "unit": "s"},
      {"measurement": "ED50", "setting": "mice [1]; half effective dose", "result": 8.57, "unit": "mg/kg"},
      {"measurement": "therapeutic index (swimming)", "setting": "[2]", "result": 60.7},
      {"measurement": "therapeutic index (tail suspension)", "setting": "[2]", "result": 37.4},
      {"measurement": "LD50", "setting": "[2]; in vivo, read-out: LD50", "result": 320, "unit": "mg/kg"},
      {"measurement": "ratio of the compound after incubation in diluted hydrochloric acid at 37° C. for 2 h", "setting": "[3]", "result": 99, "unit": "%"},
      {"measurement": "immobilized time of mice swimming", "setting": "mice [4]; 5 mg/kg, oxalate form", "result": "92.0 ± 45.5", "unit": "s"},
      {"measurement": "immobilized time of mice swimming", "setting": "mice [4]; 10 mg/kg, oxalate form", "result": "58.2 ± 45.3", "unit": "s"},
      {"measurement": "ED50", "setting": "mice [4]; half effective dose", "result": 5.28, "unit": "mg/kg"}
    ]},
    {"smiles": "Cc1cccc(C(CCN(C)C)Oc2cccc3c2OCO3)c1.O=C(O)C(=O)O", "note": "(centres unmarked) [compound 13, 3-[(benzo[d][1,3]dioxolan-4-yl)-oxy]-3-(3-methylphenyl)-N,N-dimethylpropylamine oxalate]", "values": [
      {"measurement": "immobilized time of mice tail suspension", "setting": "mice [1]; 5 mg/kg, oxalate form", "result": "71.3 ± 32.7", "unit": "s"},
      {"measurement": "immobilized time of mice tail suspension", "setting": "mice [1]; 10 mg/kg, oxalate form", "result": "29.8 ± 21.3", "unit": "s"},
      {"measurement": "ratio of the compound after incubation in diluted hydrochloric acid at 37° C. for 2 h", "setting": "[3]", "result": 99, "unit": "%"},
      {"measurement": "immobilized time of mice swimming", "setting": "mice [4]; 5 mg/kg, oxalate form", "result": "87.9 ± 55.6", "unit": "s"},
      {"measurement": "immobilized time of mice swimming", "setting": "mice [4]; 10 mg/kg, oxalate form", "result": "60.2 ± 38.6", "unit": "s"}
    ]},
    {"smiles": "CNCC[C@H](Oc1cccc2ccccc12)c1cccs1", "note": "[duloxetine, reference compound]", "values": [
      {"measurement": "immobilized time of mice tail suspension", "setting": "mice [1]; 10 mg/kg, oxalate form", "result": "34.7 ± 42.3", "unit": "s"},
      {"measurement": "immobilized time of mice tail suspension", "setting": "mice [1]; 20 mg/kg", "result": "17.8 ± 18.5", "unit": "s"},
      {"measurement": "ED50", "setting": "mice [1]", "result": 5.96, "unit": "mg/kg"},
      {"measurement": "therapeutic index (swimming)", "setting": "[2]", "result": "98.8 and 98.9"},
      {"measurement": "therapeutic index (tail suspension)", "setting": "[2]", "result": 82.1},
      {"measurement": "LD50", "setting": "[2]; in vivo, read-out: LD50", "result": 489, "unit": "mg/kg"},
      {"measurement": "ratio of the compound after incubation in diluted hydrochloric acid at 37° C. for 2 h", "setting": "[3]", "result": 18, "unit": "%"},
      {"measurement": "immobilized time of mice swimming", "setting": "mice [4]; 10 mg/kg, oxalate form", "result": "76.0 ± 57.8", "unit": "s"},
      {"measurement": "immobilized time of mice swimming", "setting": "mice [4]; 20 mg/kg", "result": "41.2 ± 33.3", "unit": "s"},
      {"measurement": "ED50", "setting": "mice [4]", "result": 4.94, "unit": "mg/kg"}
    ]}
  ]
}
